From paper PMC2680961, “Homologous desensitization of signalling by the alpha (α) isoform of the human thromboxane A2 receptor: A specific role for nitric oxide signalling” (Biochimica et Biophysica Acta, 2007)

Columns and labels:
[1] = design: method as in PMID 10508233; conditions: rapidly hydrolysed to inactive metabolite TXB2; estimated; cited from earlier work
[2] = system: eNOS; assay: eNOS phosphorylation (anti-phospho eNOS^Ser1177 western blot); assay type: cell-based, human; conditions: HEK.TPα cells (also HEK 293, HEK.TPβ); 1 μM U46619 or 10 U/ml Thrombin, 5 min, 37 °C
Procedure: In order to assess eNOS phosphorylation, HEK.TPα, HEK.TPβ or HEK 293 cells (2 × 10^6 cells/10-cm dish) were plated some 48 h prior to experimentation. Cells were incubated with vehicle, 1 μM U46619 or 10 U/ml Thrombin for 5 min at 37 °C and aliquots of whole cell protein (100 μg/lane) were analysed by SDS-PAGE/western blot. Blots were initially screened using the anti-phospho eNOS^1177 as per supplier's instructions (Cell Signalling Technology) and, following stripping, were subsequently re-screened using the anti-eNOS (Transduction Laboratories).

Compound	half-life [1]	eNOS phosphorylation at Ser^1177 [2]
CCCCC[C@H](O)/C=C/[C@H]1O[C@H]2C[C@H](O2)[C@@H]1C/C=C\CCCC(=O)O [TXA2]	30 s	–
thrombin	–	readily lead to eNOS phosphorylation
